Key:
[1] = Moisture absorption/desorption test; type: physicochemical; settings: for characteristic of channel hydrate: absorb/desorb moisture depending on humidity; for weight change at a maximum: humidified at a relative humidity of from 5 to 95%; for Weight change ratio, Adsorption / Weight change ratio, Desorption: 25° C.
Protocol: Moisture absorption/desorption test was carried out with respect to Compound A, monofumarate of Compound A, hemifumarate of Compound A, hemitartrate of Compound A and monophosphate of Compound A, to research the presence or absence of the characteristic of channel hydrate.
In the moisture absorption/desorption test, measurements were carried out according to the following conditions.
A dedicated quartz holder was filled with about from 5 to 10 mg of sample, and a weight of the sample at each humidity was measured and recorded in a continuous manner under the following conditions. Handling of the devices including data processing was based on the method and the process indicated in each device.
Device: VTI SA+ (manufactured by TA Instruments Inc.)
Drying temperature: 60° C.
Temperature rising speed: 1° C./min.
Equilibrium in drying: It is confirmed that no reduction of 0.01 wt % occurs in 5 minutes, in a range not exceeding 300 minutes.
Temperature for measurement: 25° C.
Equilibrium in humidification: It is confirmed that no increase of 0.01 wt % occurs in 5 minutes, in a range not exceeding 120 minutes.
Relative humidity program: Raised by 5% RH from 5% RH to 95% RH, and lowered by 5% RH from 95% RH to 5% RH.

in vivo = settings: Balb/cA, mouse, po, 50 mg/kg
Protocol: (§4) These administration solutions were orally administered to mice (Balb/cA) which had been bred under a feeding condition, at a dose of 10 mL per 1 kg body weight, with a sonde for oral administration. After the administration, the mice were returned to a cage for mice and conditions were checked. Inside the cage was provided with a condition where water and food were accessible ad libitum. After 0.25, 0.5, 1, 2, 4 and 6 hours from the administration, the mice were anesthetized with isoflurane, and 60 μL of blood was collected from orbital sinus with a capillary blood collection tube.
(§5) The collected blood was ice cooled, and blood plasma was separated by a centrifugal operation. The mice after the blood collection was returned to an animal breeding cage, and conditions after recovery from the anesthesia were checked. When the last blood collection was finished, the mice were euthanized by cervical dislocation, after a level check of isoflurane anesthesia.
(§6) AUC0-6 hr, Cmax and Tmax were calculated by linear-log trapezoid method with Phoenix WinNonlin (v6.3.0) which is a software manufactured by Pharsight Corporation, from a concentration of Compound A in each blood plasma measured by MRM method with LC-MS/MS.

[2] = Research of base addition salts of Compound A (solubility observation); type: physicochemical; settings: water / organic solvent, in words
Protocol: A research was carried out on salt formation with sodium and magnesium, among inorganic bases. Specifically, Compound A was dissolved in an appropriate solvent, and each kind of the bases was added thereto (from 0.5 to 1.5 equivalent), and stirring was carried out for overnight, to thereby determine whether or not a salt formation occurred. As a result, in salt formation with sodium, decomposition remarkably proceeded, and therefore, the research was suspended. From the case of magnesium, hemi magnesium salt of Compound A was obtained (Reference Example 6).

[3] = Blood concentration measurement test after oral administration; settings: mice
Protocol: as §4, §5, §6

[4] = Solid stability test (acceleration test), 40° C./75% RH; type: physicochemical
Protocol: Solid stability was measured under the following conditions, with respect to monofumarate of Compound A, hemifumarate of Compound A, hemitartrate of Compound A and monophosphate of Compound A which were obtained in the Examples and the Reference Examples, when they were stored for 2 weeks or 4 weeks at 40° C./75% RH (sealed condition and opened condition).
Storage condition: 40° C./75% RH (Sealed and Opened) (Opened refers to a condition where a glass container has the lid removed, and is covered with a KimWipe).
Points of measurement: 2 weeks and 4 weeks
(§1) Storage amount: About 30 mg
(§2) Storage container: Brown glass container
(§3) Method of preparing sample solution: Sample was dissolved in 50% acetonitrile such that a concentration of the sample would be 0.4 mg/mL.
Mass of analogous substance in the sample solution was measured by HPLC analysis. Handling of the devices including data processing was based on the method and the process indicated in each device. (Device: Shimadzu Corporation SIL-HTc/LC-20AB)
Column: InertSustein C18, 4.6×150 mm, 3 μm, manufactured by GL Sciences Inc.
MS detection: ESI positive
Column temperature: 40° C.
Column flow rate: 1.0 mL/min
Mobile phase: A; 10 mmol/L phosphate buffer (pH 6.0): Acetonitrile mixed solution (17:3), B; Acetonitrile
Amount of injection: 5 μL
In the Table, A, B and C refer to percentages of the total mass of analogous substance of less than 0.1%, 0.1% or more and less than 0.5%, and 0.5% or more, respectively. Incidentally, those marked with * were measured at 2 weeks' time and the others were measured at 4 weeks' time.

[5] = Solid stability test (severe test), 60° C.; type: physicochemical; settings: 60° C. (Sealed)
Protocol: Solid stability was measured under the following conditions, with respect to monofumarate of Compound A, hemitartrate of Compound A and monophosphate of Compound A which were obtained in the Examples and the Reference Examples, when they were stored for 2 weeks or 4 weeks at 60° C.
Storage condition: 60° C. (Sealed)
Point of measurement: 2 weeks and 4 weeks
as §1, §2, §3
In the Table, A and B refer to percentages of the total mass of analogous substance of less than 0.1%, and 0.1% or more and less than 0.5%, respectively. Incidentally, the value marked with * was measured at 2 weeks and the others were measured at 4 weeks.

[6] = tested on: mouse collagen-induced arthritis model; assay: Mice collagen-induced arthritis model; type: in vivo, DBA/1 mice; settings: 3 mg/kg, positive control, 17 days; FIG. 11
Protocol: The test was carried out in accordance with the method described in Non-Patent Literature (Brand D D, et al., Nat Protoc. 2007; 2, 1269-1275, Xu D. et al., JPET, 2012 April; 341 (1):90-103). Seven-week-old male/DBA/1 mice (CHARLES RIVER LABORATORIES JAPAN, INC.) were intracutaneously injected in the dorsum with 100 μL/body of an equal amount-mixed solution (emulsion) of 4 mg/mL of bovine type 2 collagen solution (Collagen Research Center) and Complete Freund's Adjuvant (DIFCO Inc.) (initial immunization). After 21 days therefrom, the mice were intracutaneously injected in the chine with 100 μL/body of an equal amount-mixed solution (emulsion) of 4 mg/mL of bovine type 2 collagen solution (Collagen Research Center) and Complete Freund's Adjuvant (DIFCO) to provide an additional immunization. The oral administration of 1 time per day was continued for 17 days setting the administration initiation day (day 0) as the eighth day from the additional immunization. Symptoms of arthritis in day 0, day 3, day 7, day 10, day 14 and day 17 were scored macroscopically (0: No change, 1: Swelling of a finger, 2: Swelling of two fingers or more, 3: Swelling of instep, 4: Swelling of all fingers extending wrist/ankle), and a total in four limbs was obtained as a point of individual body (maximum 16 points).

[7] = 50 mg/kg in terms of Compound A, 0.5% HPMC suspension, plasma Compound A

| SMILES | characteristic of channel hydrate [1] | weight change at a maximum [1] | Weight change ratio, Adsorption ([1]; relative humidity 5%) [%] | Weight change ratio, Desorption ([1]; relative humidity 5%) [%] | Weight change ratio, Adsorption ([1]; relative humidity 20%) [%] | Weight change ratio, Desorption ([1]; relative humidity 20%) [%] | Weight change ratio, Adsorption ([1]; relative humidity 40%) [%] | Weight change ratio, Desorption ([1]; relative humidity 40%) [%] | Weight change ratio, Adsorption ([1]; relative humidity 60%) [%] | Weight change ratio, Desorption ([1]; relative humidity 60%) [%] | Weight change ratio, Adsorption ([1]; relative humidity 80%) [%] | Weight change ratio, Desorption ([1]; relative humidity 80%) [%] | Weight change ratio, Adsorption ([1]; relative humidity 95%) [%] | Weight change ratio, Desorption ([1]; relative humidity 95%) [%] | total mass of analogous substance ([4]; Opened, 4 weeks) | total mass of analogous substance ([4]; Sealed, 4 weeks) | other results |
| --- | --- | --- | --- | --- | --- | --- | --- | --- | --- | --- | --- | --- | --- | --- | --- | --- | --- |
| C=CC(=O)N1CCC[C@@H](n2nc(C(=O)Nc3nc4ccccc4o3)c3c(N)ncnc32)C1 [Compound A, (R)-1-(1-acryloylpiperidin-3-yl)-4-amino-N-(benzo[d]oxazol-2-yl)-1H-pyrazolo[3,4-d]pyrimidine-3-carboxamide] | had the characteristic of channel hydrate | about 4.4% | 0.42 | 0.67 | 3.08 | 3.20 | 3.60 | 3.65 | 3.88 | 3.88 | 4.09 | 4.11 | 4.39 | 4.39 | – | – | AUC(0-t) (in vivo): 5.45 µM·h; Cmax (in vivo): 3.98 µM; Tmax (in vivo): 15 min |
| C=CC(=O)N1CCC[C@@H](n2nc(C(=O)Nc3nc4ccccc4o3)c3c(N)ncnc32)C1.C=CC(=O)N1CCC[C@@H](n2nc(C(=O)Nc3nc4ccccc4o3)c3c(N)ncnc32)C1.[Mg] [hemi magnesium salt of Compound A, (R)-1-(1-acryloylpiperidin-3-yl)-4-amino-N-(benzo[d]oxazol-2-yl)-1H-pyrazolo[3,4-d]pyrimidine-3-carboxamide.hemi magnesium salt] | – | – | – | – | – | – | – | – | – | – | – | – | – | – | – | – | solubility [2]: low solubility to water and to an organic solvent |
| C=CC(=O)N1CCC[C@@H](n2nc(C(=O)Nc3nc4ccccc4o3)c3c(N)ncnc32)C1.C=CC(=O)N1CCC[C@@H](n2nc(C(=O)Nc3nc4ccccc4o3)c3c(N)ncnc32)C1.O=C(O)/C=C/C(=O)O [hemifumarate of Compound A, (R)-1-(1-acryloylpiperidin-3-yl)-4-amino-N-(benzo[d]oxazol-2-yl)-1H-pyrazolo[3,4-d]pyrimidine-3-carboxamide.hemifumarate] | – | – | 0.00 | 0.04 | 0.07 | 0.11 | 0.16 | 0.23 | 0.28 | 0.40 | 0.42 | 0.54 | 0.81 | 0.81 | A (less than 0.1%) | A (less than 0.1%) | mass change (increase) ([1]; relative humidity of 95%): less than 1%; AUC0-6 hr relative to that of Compound A ([3]; 50 mg/kg): about two fold; Cmax relative to that of Compound A ([3]; 50 mg/kg): equivalent to that of Compound A; AUC0-6 hr [3, 7]: 10.32 µM·h; Cmax [3, 7]: 4.22 µM; Tmax [3, 7]: 30 min; solid stability (in words) ([4]; compared to hemitartrate or monophosphate): excellent solid stabilities |
| C=CC(=O)N1CCC[C@@H](n2nc(C(=O)Nc3nc4ccccc4o3)c3c(N)ncnc32)C1.C=CC(=O)N1CCC[C@@H](n2nc(C(=O)Nc3nc4ccccc4o3)c3c(N)ncnc32)C1.O=C(O)C(O)C(O)C(=O)O [hemitartrate of Compound A, (R)-1-(1-acryloylpiperidin-3-yl)-4-amino-N-(benzo[d]oxazol-2-yl)-1H-pyrazolo[3,4-d]pyrimidine-3-carboxamide.hemi-L-(+)-tartrate] | had the characteristic of channel hydrate | about 3.3% | 0.01 | −0.28 | 1.25 | 1.17 | 1.56 | 1.32 | 1.67 | 1.45 | 1.64 | 1.72 | 3.31 | 3.31 | B (0.1% or more and less than 0.5%) | B (0.1% or more and less than 0.5%) | total mass of analogous substance ([5]; 4 weeks): B (0.1% or more and less than 0.5%) |
| C=CC(=O)N1CCC[C@@H](n2nc(C(=O)Nc3nc4ccccc4o3)c3c(N)ncnc32)C1.O=P(O)(O)O [monophosphate of Compound A, (R)-1-(1-acryloylpiperidin-3-yl)-4-amino-N-(benzo[d]oxazol-2-yl)-1H-pyrazolo[3,4-d]pyrimidine-3-carboxamide.monophosphate] | – | – | 0.01 | 5.76 | 0.19 | 8.06 | 0.36 | 9.29 | 0.61 | 10.38 | 1.29 | 12.12 | 17.90 | 17.90 | – | – | crystal form after the moisture absorption/desorption test [1]: did not maintain the original crystal form; total mass of analogous substance ([4]; Opened, 2 weeks (marked *)): C* (0.5% or more); total mass of analogous substance ([4]; Sealed, 2 weeks (marked *)): C* (0.5% or more); total mass of analogous substance ([5]; 2 weeks (marked *)): B* (0.1% or more and less than 0.5%) |
| C[C@]12C=CC(=O)C=C1CC[C@@H]1[C@@H]2[C@@H](O)C[C@@]2(C)[C@H]1CC[C@]2(O)C(=O)CO [prednisolone, reference compound] | – | – | – | – | – | – | – | – | – | – | – | – | – | – | – | – | arthritis score [6]: only in a degree of maintaining the raised arthritis score |

From patent US10280174B2, “Salt of fused pyrimidine compound and crystal thereof” (TAIHO PHARMACEUTICAL CO., LTD., priority 2015, dated 2019)
